Assay results: patent US4678782A, “3S-formamido azetidinone antibacterial agents, their preparation and use” (Beecham Group p.l.c., priority 1982, dated 1987)

Tests used:
Assay type in all cases: cell-based
[1] = system: E. coli JT4; assay: standard microtitre (MIC) test, E. coli JT4; details: Escherichia coli
From the text: (§1) In a standard microtitre (MIC) test, the compound of Example 14 gave the following data: […]

[2] = system: E. coli NCTC 10418; assay: standard microtitre (MIC) test, E. coli NCTC 10418; details: Escherichia coli, NCTC10418
From the text: as §1

[3] = system: S. marcescens US32; assay: standard microtitre (MIC) test, S. marcescens US32; details: Serratia marcescens
From the text: as §1

[4] = system: K. aerogenes A; assay: standard microtitre (MIC) test, K. aerogenes A; details: Klebsiella aerogenes
From the text: as §1

[5] = system: E. cloacae N1; assay: standard microtitre (MIC) test, E. cloacae N1; details: Enterobacter cloacae
From the text: as §1

[6] = system: P. morganii; assay: standard microtitre (MIC) test, P. morganii; details: Morganella morganii
From the text: as §1

[7] = system: S. aureus Russell; assay: standard microtitre (MIC) test, S. aureus Russell; details: Staphylococcus aureus
From the text: as §1

Structure (SMILES): CCN1CCN(C(=O)N[C@@H](C(=O)NC2(NC=O)CN(S(=O)(=O)O)C2=O)c2ccccc2)C(=O)C1=O (stereo partly drawn) [Example 14, (3RS)-Potassium-3-[D-2-(4-Ethyl-2,3-dioxopiperazin-1-yl-carboxamido)-2-phenylacetamido]-3-formamido-2-oxo-azetidine-1-sulphonate]
- MIC [1]: 25 µg/mL
- MIC [2]: 12.5 µg/mL
- MIC [3]: 12.5 µg/mL
- MIC [4]: 3.2 µg/mL
- MIC [5]: 12.5 µg/mL
- MIC [6]: 6.4 µg/mL
- MIC [7]: 3.2 µg/mL
